Here are results for 31 molecules from patent US7214673B2, “Piperazine substituted aryl benzodiazepines and their use as dopamine receptor antagonists for the treatment of psychotic disorders” (Eli Lilly and Company, priority 2002, dated 2007).

Structures can show the parent of a compound that is named as a salt. A value given as a limit tells only on which side of the number the result lay.

For the first series, the target named is T1, Dopamine D2 receptor (Homo sapiens, UniProt P14416).
T1 construct: purchased Receptor Biology (now owned by NEN) RBHD2CM
T1 sequence (P14416 1-414 isoform P14416-2): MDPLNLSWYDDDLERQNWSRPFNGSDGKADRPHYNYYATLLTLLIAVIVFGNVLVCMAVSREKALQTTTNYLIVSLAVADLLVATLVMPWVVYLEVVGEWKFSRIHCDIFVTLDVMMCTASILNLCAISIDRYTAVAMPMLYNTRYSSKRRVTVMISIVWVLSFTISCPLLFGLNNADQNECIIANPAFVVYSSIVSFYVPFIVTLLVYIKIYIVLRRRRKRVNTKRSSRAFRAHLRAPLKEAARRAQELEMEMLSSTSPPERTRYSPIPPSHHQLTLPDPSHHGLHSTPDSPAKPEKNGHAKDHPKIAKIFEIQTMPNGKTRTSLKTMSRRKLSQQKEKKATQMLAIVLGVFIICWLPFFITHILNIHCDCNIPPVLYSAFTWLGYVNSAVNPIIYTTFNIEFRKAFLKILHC
In words: Dopamine D2 receptor binding assay ([125I]iodospiperone). To be noted: [125I]iodospiperone 0.1 nM, D2 receptor membranes, 2 hours at room temperature; read-out: Relative D2 Receptor Binding Affinity Ki. As to the method:
Serotonin 5-HT6 and Dopamine D2 Binding Assay Protocol
The assay buffers used are 50 mM Tris-HCl pH 7.4, 120 mM NaCl, 5 mM KCl, 5 mM MgCl2, 1 mM EDTA for the Dopamine D2s receptor binding assay. […] The membranes used are from Receptor Biology (now owned by NEN), Cat #RBHD2CM for the D2 receptor.
Compounds are obtained as 10 mM stocks in 100% DMSO. They are diluted to 1 mM in 100% DMSO by adding 180 μL DMSO to 20 μL of stock in 96 well plates using a multidrop. […] This is done using a TECAN robot.
The radioligand is diluted in assay buffer to provide 0.1 nM for the D2 assay. Each vial of membranes is diluted up to 92 mL in assay buffer. The final assay volume is 250 μL consisting of 210 μl of diluted membranes, 20 μL of compound or 10% DMSO for total binding, and 20 μL of diluted radioligand. The compounds are transferred from drug dilution plates into coming 96 well assay plates using a 96 well Multimek pipettor. Radioligand and membranes are added to assay plates using multidrop pipettors. Non-specific binding is determined in wells containing a final concentration of 5 μM haloperidol. The final drug concentration range in half logs is from 10 μM down to 0.1 nM.
After addition of drug, membrane, and ligand, the plates are incubated for 2 hours at room temperature. During this time 96 well Millipore filter plates (MAFBNOB50) are soaked for a least 30 minutes with 200 μL per well of 0.5% polyethyleneimine.
The 0.5% PEI is removed from filterplate wells using a TiterTek MAP aspirator and 200 μL of the incubation mixture is transferred from the incubation plate to the filterplate after mixing. This transfer is done using the 96 tip Mutimek pipettor. After transfer to the filterplate filterplates are extracted and ished twice with 220 μL per well of cold buffer on the MAP aspirator. The peel away bottoms are removed from the filterplates and 60 μL per well of microscint 20 scintillation fluid is added per well using a multidrop. Plates are placed into suitable holders and are left at room temperature for 3 hours and are counted for ^3H in either a Wallac Microbeta counter or on a Packard Topcount.
In the case of `Cc1cc2c(s1)Nc1ccccc1N=C2N1CCN[C@@H](CCc2cccc(F)c2)C1` [Example 177, 10-((S)-3-(2-(3-Fluoro-phenyl)-ethyl)-piperazin-1-yl))-2-methyl-4H-3-thia-4,9-diaza-benzo[f]azulene dihydrochloride], the Ki (as a rule, the dissociation constant of the complex between target and ligand, obtained from inhibition or displacement) lay within 10 to 100 nM.

For the molecule `Cc1nc2c(s1)Nc1ccccc1N=C2N1CCN(C)[C@@H](CCc2ccccc2)C1` [Example 461, (S)-2-Methyl-10-(4-methyl-3-phenethyl-piperazin-1-yl)-4H-3-thia-1,4,9-triaza-benzo[f]azulene dihydrochloride hemihydrate], the Ki was 10 to 100 nM.

In the case of `COc1cccc(CC[C@H]2CN(C3=Nc4ccccc4Nc4sc(C)cc43)CCN2)c1` [Example 180, 10-((S)-3-(2-(3-Methoxy-phenyl)-ethyl)-piperazin-1-yl)-2-methyl-4H-3-thia-4,9-diaza-benzo[f]azulene dihydrochloride], the Ki is less than 10 nM.

As to `COc1ccc(CC[C@H]2CN(C3=Nc4ccccc4Nc4sc(C)cc43)CCN2)cc1` [Example 179, 10-((S)-3-(2-(4-methoxy-phenyl)-ethyl)-piperazin-1-yl)-2-methyl-4H-3-thia-4,9-diaza-benzo[f]azulene dihydrochloride], the Ki is less than 10 nM.

In the case of `Cc1cc2c(s1)Nc1ccccc1N=C2N1CCN[C@@H](CCc2ccccc2F)C1` [Example 178, 10-((S)-3-(2-(2-Fluoro-phenyl)-ethyl)-piperazin-1-yl)-2-methyl-4H-3-thia-4,9-diaza-benzo[f]azulene dihydrochloride], the Ki lay within 10 to 100 nM.

For `Cc1cc2c(s1)Nc1ccccc1N=C2N1CCN(C)[C@@H](Cc2cccc(Cl)c2)C1` [Example 119], the Ki was in the range of 10 to 100 nM.

For the molecule `Cc1cc2c(s1)Nc1ccccc1N=C2N1CCN[C@@H](Cc2cc(F)cc(F)c2)C1` [Example 88], the Ki is less than 10 nM.

Take `Cc1cc2c(s1)Nc1ccccc1N=C2N1CCN[C@@H](CCCCc2ccccc2)C1` [Example 194]: the Ki was less than 10 nM.

For the molecule `Cc1cc2c(s1)Nc1ccccc1N=C2N1CCN(C)[C@@H](CCCCc2ccccc2)C1` [Example 195, (S)-2-Methyl-10-(3-(4-phenyl-butyl)-4-methyl-piperazin-1-yl)-4H-3-thia-4,9-diaza-benzo[f]azulene, dihydrochloric acid], the Ki was in the range of 10 to 100 nM.

With `COc1cccc(CC[C@H]2CN(C3=Nc4ccccc4Nc4sc(C)cc43)CCN2C)c1` [Example 186, 10-((S)-3-(2-(3-Methoxy-phenyl)-ethyl)-4-methyl-piperazin-1-yl)-2-methyl-4H-3-thia-4.9-diaza-benzo[f]azulene dihydrochloride], the Ki was less than 10 nM.

Test system in another series: not given
Experiment: not given
Conditions: not given
For the molecule `Cc1cc2c(s1)Nc1ccccc1N=C2N1CCN(C)[C@@H](CCc2ccc(C(F)(F)F)cc2)C1` [Example 396, 10-((S)-3-[2-(4-Trifluoromethyl-phenyl)-ethyl]-4-methyl-piperazin-1-yl)-2-methyl-4H-3-thia-4,9-diaza-benzo[f]azulene], the melting point – broadly, the temperature, or range, at which the solid turns liquid – is 72 °C (dec.).

For `COc1cccc(CC[C@H]2CN(C3=Nc4ccccc4Nc4sc(C)cc43)CCN2C)c1` (as salt: hydrochloride) [Example 186, 10-((S)-3-(2-(3-Methoxy-phenyl)-ethyl)-4-methyl-piperazin-1-yl)-2-methyl-4H-3-thia-4.9-diaza-benzo[f]azulene dihydrochloride], the melting point is 200 °C (dec.).

Regarding `Cc1nc2c(s1)Nc1ccccc1N=C2N1CCN(C)[C@@H](CCc2cccc(F)c2)C1` (as salt: hydrochloride) [Example 479, (S)-10-{3-[2-(3-Fluoro-phenyl)-ethyl]-4-methyl-piperazin-1-yl}-2-methyl-4H-3-thia-1,4,9-triaza-benzo[f]azulene dihydrochloride], the melting point turned out to be 230 °C.

With `Cc1ccc2c(c1)Nc1ccccc1N=C2N1CCN(C)[C@@H](CCc2cccc(F)c2)C1` [Example 578, 11-{(S)-3-[2-(3-Fluoro-phenyl)-ethyl]-4-methyl-piperazin-1-yl}-3-methyl-5H-dibenzo[b,e][1,4]diazepine], the melting point is 63 °C (dec.).

As for `CC(C)c1nc2c(s1)Nc1ccccc1N=C2N1CCN(C)[C@@H](CCc2ccc(F)cc2)C1` (as salt: hydrochloride) [Example 481, (S)-10-{3-[2-(4-Fluoro-phenyl)-ethyl]-4-methyl-piperazin-1-yl}-2-isopropyl-4H-3-thia-1,4,9-triaza-benzo[f]azulene dihydrochloride], the melting point was 228 °C.

On to `CN1CCN(C2=Nc3ccccc3Nc3ccc(C(F)(F)F)cc32)CC1` [Example 606, 11-(4-Methyl-piperazin-1-yl)-2-trifluoromethyl-5H-dibenzo[b,e][1,4]diazepine], for which the melting point lay in the range of 68 to 72 °C.

`Cc1nc2c(s1)Nc1ccccc1N=C2N1CCN(C)[C@@H](Cc2ccccc2)C1` (as salt: hydrochloride) came in with a melting point of 240 °C.

For `Cc1cc2c(s1)Nc1ccccc1N=C2N1CCN[C@@H](CCc2ccc(Cl)cc2)C1` [Example 388, 10-((S)-3-[2-(4-Chloro-phenyl)-ethyl]-piperazin-1-yl)-2-methyl-4H-3-thia-4,9-diaza-benzo[f]azulene], the melting point was 91 °C (dec.).

With `Cc1cc2c(s1)Nc1ccccc1N=C2N1CCN(C)[C@@H](CCc2ccoc2)C1.Cl.Cl`, the melting point is 198 °C (dec.).

As for `CC(C)c1nc2c(s1)Nc1ccccc1N=C2N1CCN(C)[C@@H](CCc2cccc(F)c2)C1` (as salt: hydrochloride), the melting point worked out at 180 °C.

Turning to `Cc1nc2c(s1)Nc1ccccc1N=C2N1CCN(C)[C@@H](CCc2ccccc2)C1` (as salt: hydrochloride) (hydrate or solvate) [Example 461, (S)-2-Methyl-10-(4-methyl-3-phenethyl-piperazin-1-yl)-4H-3-thia-1,4,9-triaza-benzo[f]azulene dihydrochloride hemihydrate], the melting point was 220 °C.

Turning to `Cc1cc2c(s1)Nc1ccccc1N=C2N1CCN(C)[C@@H](CCc2ccc(Cl)cc2)C1` [Example 390, 10-((S)-3-[2-(4-Chloro-phenyl)-ethyl]-4-methyl-piperazin-1-yl)-2-methyl-4H-3-thia-4,9-diaza-benzo[f]azulene], the melting point was 79 °C (dec.).

As to `Cc1cc2c(s1)Nc1ccccc1N=C2N1CCN(C)[C@@H](CCc2ccccc2C(F)(F)F)C1` [Example 397, 10-((S)-3-[2-(2-Trifluoromethyl-phenyl)-ethyl]-4-methyl-piperazin-1-yl)-2-methyl-4H-3-thia-4,9-diaza-benzo[f]azulene], the melting point was 68 °C (dec.).

The molecule `CC(C)(C)c1cc2c(s1)Nc1ccccc1N=C2N1CCN[C@@H](CCc2ccccc2)C1` [Example 445, (S)-2-tert-Butyl-10-(3-phenethyl-piperazin-1-yl)-4H-3-thia-4,9-diaza-benzo[f]azulene] yielded a melting point of 93 to 96 °C.

As to `Cc1cc2c(s1)Nc1ccccc1N=C2N1CCN[C@@H](CCc2cccc(C(F)(F)F)c2)C1` [Example 395, 10-((S)-3-[2-(3-Trifluoromethyl-phenyl)-ethyl]-piperazin-1-yl)-2-methyl-4H-3-thia-4,9-diaza-benzo[f]azulene], the melting point is 69 °C (dec.).

As to `Cc1cc2c(s1)Nc1ccccc1N=C2N1CCN(C)[C@@H](CCc2ccccc2)C1.Cl`, the melting point was 225 °C.

Regarding `Cc1cc2c(s1)Nc1ccccc1N=C2N1CCN[C@@H](CCc2ccccc2Cl)C1` [Example 389, 10-((S)-3-[2-(2-Chloro-phenyl)-ethyl]-piperazin-l-yl)-2-methyl-4H-3-thia-4,9-diaza-benzo[f]azulene], the melting point is 72 °C (dec.).

`COc1ccc(CC[C@H]2CN(C3=Nc4cc(F)ccc4Nc4sc(C)cc43)CCN2C)cc1.Cl` (stereo in doubt): the melting point was in the range of 180 to 182 °C.

Turning to `CC(C)n1nc2c(n1)C(N1CCN[C@@H](CCc3ccccc3)C1)=Nc1ccccc1N2` (as salt: hydrochloride) (hydrate or solvate) [Example 594, (S)-2-Isopropyl-10-(3-phenethyl-piperazin-1-yl)-2,4-dihydro-1,2,3,4.9-pentaaza-benzo[f]azulene dihydrochloride hemihydrate], the melting point turned out to be 210 °C.

For `Cc1nc2c(s1)Nc1ccccc1N=C2N1CCN[C@@H](CCc2ccccc2)C1` (as salt: hydrochloride) (hydrate or solvate) [Example 460, (S)-2-Methyl-10-(3-phenethyl-piperazin-1-yl)-4H-3-thia-1,4,9-triaza-benzo[f]azulene dihydrochloride hemihydrate], the melting point was 230 °C.

`CC(C)c1ccc2c(c1)C(N1CCN(C)[C@@H](CCc3cccc(F)c3)C1)=Nc1ccccc1N2` (as salt: hydrochloride) came in with a melting point of 227 °C.
